Measured values as given in US20040077659A1, “Method for treating ppar gamma mediated diseases or conditions” (priority 2003, published 2004).

Key:
[1] = system: Zucker Diabetic Fatty rats (ZDF fa/fa); test: Diabetic rat study, 28-day; format: in vivo; set-up: total serum protein: unit not given here; conditions: for glycemic control / insulin: 28-day treatment, relative to vehicle treatment; for hematocrit (% RBC volume): vehicle 49±0.3; for hemodilution as indicated by hematocrit and total serum protein: day 28, versus vehicle group
Description: The five PPAR pan agonist molecules prepared above were administered by oral gavage to genetically altered rodents that simulate the human disease of type 2 Diabetes Mellitus (Zucker Diabetic Fatty rats (ZDF fa/fa)). As a control a PPAR gamma agonist 2-[2-(methoxycarbonyl)anilino]-3-{4-[2-(5-methyl-2-phenyl-1,3-oxazol-4-yl)ethoxy]phenyl}propanoic acid was also tested. This PPAR gamma agonist can be prepared as described in Cobb, J. E., et al., N-(2-Benzoylphenyl)-L-tyrosine PPARg agonists. 3. Structure-activity relationship and optimization of the N-aryl substituent., J. Med. Chem. 1998, 41, 5055-5069. As an additional control, one group was treated with vehicle alone.
While all five hPPAR pan agonist molecules were evaluated in the above study for 7 days, one of these pan agonists, 2-{4-[({4-{[4-(4-methoxyphenyl)-1-piperazinyl]methyl}-2-[4-(triflouromethyl)phenyl]-1,3-thiazol-5-yl}methyl)sulfanyl]phenoxy}-2-methylpropanoic acid, and the PPAR gamma agonist were tested for 28 days. Animals were treated earlier than in the 7-day study, before the development of diabetes as measured by increased plasma glucose. Measurements were obtained at 7 day intervals and the PPAR pan agonist molecule (♦) was compared to vehicle control (*) and the PPAR gamma agonist (□). [formula] [formula] [formula]

Cynomolgus monkeys = test: Primate study, edema and hemodilution; format: in vivo, Cynomolgus monkey; conditions: oral once daily for 63 or 64 days, 1, 5 and 15 mg/kg
Description: In addition to the above rat studies, a primate study was conducted using the PPAR pan agonist 2-{4-[({4-{[4-(4-methoxyphenyl)-1-piperazinyl]methyl}-2-[4-(trifluoromethyl)phenyl]-1,3-thiazol-5-yl}methyl)sulfanyl]phenoxy}-2-methylpropanoic acid. In that study, male and female Cynomolgus monkeys were dosed orally once daily for 63 or 64 days with doses projected to provide greater than 3× the serum concentration needed to lower insulin resistance and serum glucose in diabetic patients. The animals were dosed at 0 mg/kg (control), 1 mg/kg, 5 mg/kg, and 15 mg/kg of the PPAR pan agonist. The animals were carefully observed for signs of edema and or hemodilution. Methods of evaluation during the in-life portion of the study included visual observation of swelling, particularly around the eyes and or genitals by a Board Certified pathologist, as well as evaluation of clinical hematology (red blood cell volume) and clinical chemistries (total serum protein) as evidence of hemodilution. At necropsy, careful examination for gross evidence of edema was based on palpation and careful examination of all issue. Special emphasis was given to the gross evaluation of subcutaneous tissue, all fat stores, lungs and all serous cavities.

Row | SMILES | body weight increase from the start of dosing ([1]; 28-day study) [%] | glycemic control [1] | insulin [1] | hematocrit (% RBC volume) ([1]; after 28 days) | hemodilution as indicated by hematocrit and total serum protein [1] | body weight gain compared with vehicle treated animals ([1]; 28-day study) | total serum protein ([1]; after 28 days, vehicle 7.5±0.2) | edema in tissues examined histologically (Cynomolgus monkeys) | signs of edema or hemodilution during in-life or necropsy portions (Cynomolgus monkeys)
1 | COC(=O)c1ccccc1NC(Cc1ccc(OCCc2nc(-c3ccccc3)oc2C)cc1)C(=O)O (stereo not shown) [PPAR gamma agonist, 2-[2-(methoxycarbonyl)anilino]-3-{4-[2-(5-methyl-2-phenyl-1,3-oxazol-4-yl)ethoxy]phenyl}propanoic acid, reference compound] | 120 | maintained glycemic control | lowered insulin | 43±1.0 | evident | – | – | – | –
2 | COc1ccc(N2CCN(Cc3nc(-c4ccc(C(F)(F)F)cc4)sc3CSc3ccc(OC(C)(C)C(=O)O)cc3)CC2)cc1 [PPAR pan agonist, 2-{4-[({4-{[4-(4-Methoxyphenyl)-1-piperazinyl]methyl}-2-[4-(trifluoromethyl)phenyl]-1,3-thiazol-5-yl}methyl)sulfanyl]phenoxy}-2-methylpropanoic acid] | – | maintained glycemic control | lowered insulin | 48±0.9 | not significantly different from the vehicle group | not significantly different from the vehicle treated animals | 7.2±0.2 | No evidence of edema | no signs or suggestions of edema or hemodilution
